Measured values as given in PMC5443055 (Human Vaccines & Immunotherapeutics, 2014).

Test system: splenocytes of immunized HLA DR3 tg mice
Experiment: Th1/Th2/Th17 cytokine bead array
Assay type: cell-based, mouse (HLA DR3 transgenic)
Details: ConA 2 μg/mL, positive control, consistent between arms

**Q.** What does the source list for Concanavalin A [ConA]?
**A.** IFNγ concentration above background (highest of panel): 260 pg/mL; IL-4 concentration above background (lowest of panel): 16 pg/mL
